Key:
[1] = target: T1, TelJak3 (BaF3 TELJAK cells, TEL/JAK3 fusion) (Homo sapiens, UniProt P52333); test: Cellular growth inhibition assay (MTT), BaF3 TEL:JAK3 cell line; assay type: cell-based; settings: Table 1, 40 hr incubation
T1 construct: For JAK3 Sa1 I/Not I cleaved kinase domain PCR product was ligated with BamH I/Sa1 I cleaved TELproduct; expressed in transfected cells; host or cells: BaF3 cells bearing the pTET-off plasmid, transfected with pTELJAK3 (pTRE2 vector); the other entry of the earlier key: ETV6 (P41212, Transcription factor ETV6)

DU145 (Prostate Cancer) = test: Cellular growth inhibition assay (MTT), DU145; assay type: cell-based; settings: Homo sapiens, DU-145, Table 1, 40 hr incubation
Procedure, shortened: (§1)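 Late-log-phase cells (K562 in RPMI, DU145 in DMED, PC3 in F12K; all 10% FBS, Glutamx, plus MEM non-essential amino acids for DU145 and PC3) were plated at 50000–200,000 cell/mL (1.1× final) with compounds added at 10× final. After 40 hr at 37° C, 5% CO2, MTT was added for 6 hours, then SDS/HCl lysis overnight and absorbance read at 590 nm.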

[2] = system: Tubulin (microtubule protein); test: Tubulin assay (turbidometric assay of microtubule assembly); assay type: biochemical; settings: Table 1; 50 μM; absorbance at 340 nm, 37° C.
Experimental: Turbidometric assays of microtubule assembly were performed by incubating microtubule protein in cuvettes at 37° C. in a thermostatically controlled spectrophotometer measuring the change in absorbance at 340 nm over time. The microtubule protein was incubated with the each test compound at 0° C. and polymerisation was initiated by addition of 1 mM GTP, prior to heating to 37° C.

[3] = system: K562 (Chronic Myeloid Leukemia); test: Cellular growth inhibition assay (MTT), K562; assay type: cell-based; settings: Homo sapiens, Table 1, 40 hr incubation
Procedure, shortened: as §1

PC3 (Prostate Cancer) = test: Cellular growth inhibition assay (MTT), PC3; assay type: cell-based; settings: Table 1, 40 hr incubation
Procedure, shortened: as §1

[4] = target: T2, TelJak2 (BaF3 TELJAK cells, TEL/Jak2 fusion) (Homo sapiens, UniProt O60674); test: Cellular growth inhibition assay (MTT), BaF3 TEL:JAK2 cell line; assay type: cell-based; settings: Table 1, 40 hr incubation
T2 construct: The regions encompassing the kinase domain of JAK2 (nucleotides 2994-3914); expressed in transfected cells; host or cells: BaF3 cells bearing the pTET-off plasmid, transfected with pTELJAK2 (pTRE2 vector); the other entry of the earlier key: ETV6 (P41212, Transcription factor ETV6)
T2 sequence (O60674 with tags, fused parts or gaps): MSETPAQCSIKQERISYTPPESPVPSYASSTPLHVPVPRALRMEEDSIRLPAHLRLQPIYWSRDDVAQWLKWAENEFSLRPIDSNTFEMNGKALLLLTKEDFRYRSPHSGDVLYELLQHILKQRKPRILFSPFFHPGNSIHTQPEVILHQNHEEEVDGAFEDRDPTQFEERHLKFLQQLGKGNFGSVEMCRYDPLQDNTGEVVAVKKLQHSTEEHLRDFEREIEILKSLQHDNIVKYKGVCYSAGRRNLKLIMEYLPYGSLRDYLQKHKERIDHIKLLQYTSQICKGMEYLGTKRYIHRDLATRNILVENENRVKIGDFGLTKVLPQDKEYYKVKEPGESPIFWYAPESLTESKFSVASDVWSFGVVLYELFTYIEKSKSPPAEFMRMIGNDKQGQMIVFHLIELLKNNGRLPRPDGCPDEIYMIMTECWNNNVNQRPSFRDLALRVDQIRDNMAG

T1 sequence (P52333 with tags, fused parts or gaps): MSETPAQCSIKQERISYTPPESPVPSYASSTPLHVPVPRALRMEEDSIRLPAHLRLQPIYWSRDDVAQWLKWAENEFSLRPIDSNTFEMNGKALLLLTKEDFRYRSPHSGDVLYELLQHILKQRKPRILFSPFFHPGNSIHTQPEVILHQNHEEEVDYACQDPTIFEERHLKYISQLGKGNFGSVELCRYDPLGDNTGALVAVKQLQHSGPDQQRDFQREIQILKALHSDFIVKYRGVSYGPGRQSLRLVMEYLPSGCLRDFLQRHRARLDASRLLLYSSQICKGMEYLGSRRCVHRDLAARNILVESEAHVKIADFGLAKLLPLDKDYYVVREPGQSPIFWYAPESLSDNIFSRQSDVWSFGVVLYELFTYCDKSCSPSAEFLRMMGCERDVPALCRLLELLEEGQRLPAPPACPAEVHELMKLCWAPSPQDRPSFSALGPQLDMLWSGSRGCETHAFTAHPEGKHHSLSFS

Row | Compound | inhibition at 20 µM [1] [%] | inhibition at 20 µM (DU145 (Prostate Cancer)) [%] | Tubulin inhibition of tubulin polymerisation [2] | inhibition at 20 µM [3] [%] | inhibition at 20 µM (PC3 (Prostate Cancer)) [%] | inhibition at 20 µM [4] [%]
1 | CCC[C@H](Nc1nc(-c2ccc(NC(=O)NCC)c(OC)c2)ncc1C)c1cccnc1 | > 50 | > 50 | + (compounds which inhibited tubulin polymerisation by greater than 50% at 50 μM) | > 50 | > 50 | > 50
2 | CCCC(Nc1cncc(-c2ccc(CNC(=O)C3CCCNC3)cc2)n1)c1ccccc1 (stereo not drawn) | > 50 | > 50 | + (compounds which inhibited tubulin polymerisation by greater than 50% at 50 μM) | > 50 | > 50 | > 50
3 | CCC[C@H](Nc1nc(-c2ccc(O)c(OC)c2)ncc1C)c1cccnc1 | > 50 | > 50 | + (compounds which inhibited tubulin polymerisation by greater than 50% at 50 μM) | > 50 | > 50 | > 50
4 | CCCC(Nc1cncc(-c2ccc(NC(=O)NCC)c(C)c2)n1)c1cnccc1C (stereo not drawn) | > 50 | > 50 | + (compounds which inhibited tubulin polymerisation by greater than 50% at 50 μM) | > 50 | > 50 | > 50
5 | CCCC(Nc1cncc(-c2ccc(NC(=O)NCC)c(CC)c2)n1)c1cccnc1 (stereo not drawn) | > 50 | > 50 | + (compounds which inhibited tubulin polymerisation by greater than 50% at 50 μM) | > 50 | > 50 | > 50
6 | CCCC(Nc1cncc(-c2ccc(CN)cc2)n1)c1ccccc1 (stereo not drawn) | > 50 | > 50 | + (compounds which inhibited tubulin polymerisation by greater than 50% at 50 μM) | > 50 | > 50 | > 50
7 | CCCC(Nc1cncc(-c2ccc(OCCCCN3CCCCC3)c(OC)c2)n1)c1ccccc1 (stereo not drawn) | > 50 | > 50 | + (compounds which inhibited tubulin polymerisation by greater than 50% at 50 μM) | > 50 | > 50 | > 50
8 | CCCC(Nc1cncc(-c2ccc(OCCN(CC)CC)c(OC)c2)n1)c1ccccc1 (stereo not drawn) | > 50 | > 50 | + (compounds which inhibited tubulin polymerisation by greater than 50% at 50 μM) | > 50 | > 50 | > 50
9 | CCCC(Nc1cncc(-c2ccc(OCCCO)c(OC)c2)n1)c1ccccc1 (stereo not drawn) | > 50 | > 50 | + (compounds which inhibited tubulin polymerisation by greater than 50% at 50 μM) | > 50 | > 50 | > 50
10 | COc1cc(-c2cc(N[C@@H](C)c3ccccc3)ncn2)ccc1O | > 50 | > 50 | + (compounds which inhibited tubulin polymerisation by greater than 50% at 50 μM) | > 50 | > 50 | > 50
11 | CCC[C@H](Nc1cncc(-c2ccc(NC(=O)NCC)c(OC)c2)n1)c1ccccc1 | > 50 | > 50 | + (compounds which inhibited tubulin polymerisation by greater than 50% at 50 μM) | > 50 | > 50 | > 50
12 | CCCC(Nc1cncc(-c2ccc(NC(=O)NCC)c(OC)c2)n1)c1cccc(F)c1 (stereo not drawn) | > 50 | > 50 | + (compounds which inhibited tubulin polymerisation by greater than 50% at 50 μM) | > 50 | > 50 | > 50
13 | CCCC(Nc1cncc(-c2ccc(CNC(=O)C3CCNCC3)cc2)n1)c1ccccc1 (stereo not drawn) | > 50 | > 50 | + (compounds which inhibited tubulin polymerisation by greater than 50% at 50 μM) | > 50 | > 50 | > 50
14 | CCCC(Nc1cncc(-c2ccc(NC(=O)NCC)c(OC)c2)n1)c1cncc(C)c1 (stereo not drawn) | > 50 | > 50 | + (compounds which inhibited tubulin polymerisation by greater than 50% at 50 μM) | > 50 | > 50 | > 50
15 | CCC[C@H](Nc1cncc(-c2ccc(NC(=O)NCC)c(OC)c2)n1)c1cccnc1 | > 50 | > 50 | + (compounds which inhibited tubulin polymerisation by greater than 50% at 50 μM) | > 50 | > 50 | > 50
16 | CCCC(Nc1cncc(-c2ccc(OCCCCN3CCCC3)c(OC)c2)n1)c1ccccc1 (stereo not drawn) | > 50 | > 50 | + (compounds which inhibited tubulin polymerisation by greater than 50% at 50 μM) | > 50 | > 50 | > 50
17 | CCCC(Nc1cncc(-c2ccc(NC(=O)NCC)c(OC)c2)n1)c1cnccc1C (stereo not drawn) | > 50 | > 50 | + (compounds which inhibited tubulin polymerisation by greater than 50% at 50 μM) | > 50 | > 50 | > 50
18 | CCCC(Nc1cncc(-c2ccc(OCCCCO)c(OC)c2)n1)c1ccccc1 (stereo not drawn) | > 50 | > 50 | + (compounds which inhibited tubulin polymerisation by greater than 50% at 50 μM) | > 50 | > 50 | > 50
19 | CCCC(Nc1cncc(-c2cc(C)c(O)c(C)c2)c1)c1ccccc1 (stereo not drawn) | > 50 | > 50 | + (compounds which inhibited tubulin polymerisation by greater than 50% at 50 μM) | > 50 | > 50 | > 50
20 | CCCC(Nc1cncc(-c2ccc(NC(=O)NCCN(C)C)c(OC)c2)n1)c1cccnc1 (stereo not drawn) | > 50 | > 50 | + (compounds which inhibited tubulin polymerisation by greater than 50% at 50 μM) | > 50 | > 50 | > 50
21 | COc1cc(-c2nccc(N[C@@H](C)c3ccccc3)n2)ccc1O | > 50 | > 50 | + (compounds which inhibited tubulin polymerisation by greater than 50% at 50 μM) | > 50 | > 50 | > 50
22 | CCCC(Nc1cncc(-c2ccc(OCCCN3CCCC3)c(OC)c2)n1)c1ccccc1 (stereo not drawn) | > 50 | > 50 | + (compounds which inhibited tubulin polymerisation by greater than 50% at 50 μM) | > 50 | > 50 | > 50
23 | CCCC(Nc1cncc(-c2ccc(NC(=O)NCC)c(C)c2)n1)c1cccnc1 (stereo not drawn) | > 50 | > 50 | + (compounds which inhibited tubulin polymerisation by greater than 50% at 50 μM) | > 50 | > 50 | > 50
24 | CCC[C@H](Nc1cc(-c2ccc(NC(=O)NCC)c(OC)c2)ncn1)c1cccnc1 | > 50 | > 50 | + (compounds which inhibited tubulin polymerisation by greater than 50% at 50 μM) | > 50 | > 50 | > 50

Source: patent US9732046B2, “Substituted 1,2,4-triazines as tubulin inhibitors” (YM Biosciences Australia Pty Ltd., priority 2003, dated 2017)
